The assay concerns HeLa. The assay can be described thus: Cytotoxicity against human HeLa cells incubated for 24 hrs by WST-8 assay. In kind it is functional, cell-based. A general note: Tetrazolium dyes change colour on reduction, which living cells bring about.

For the compound `CC[C@H](C)[C@@H]1NC(=O)[C@@H]2CCCN2C(=O)[C@H](Cc2c[nH]c3ccccc23)NC(=O)[C@@H]2CCCN2C(=O)[C@H](C(C)C)NC(=O)[C@H](Cc2ccccc2)NC(=O)[C@H](CO)NC1=O`, a half-maximal response (EC50) required 78 µM. This lies in the double-digit micromolar range. Then `CCC(C)[C@@H]1NC(=O)[C@@H]2CCCN2C(=O)[C@H](Cc2c[nH]c3ccccc23)NC(=O)[C@@H]2CCCN2C(=O)[C@@H](C(C)C)NC(=O)[C@H](Cc2ccccc2)NC(=O)[C@H](CO)NC1=O` (single isomer, unassigned), with 61 µM.

As a reminder, the EC50 is the concentration at which the effect is half-maximal. A high value points to lower potency in that assay.

For the origin of these results see ChEMBL document CHEMBL6153080, “Synthesis and Chemical Structure of the Cyclic Heptapeptide Stylissamide H” (J Nat Prod, 2025).
